The text below walks through data of US5654178A, “Immunoassay for tetrachloroisophthalonitrile (chlorothalonil), its derivatives and breakdown products” (ISK Biosciences Corporation, priority 1995, dated 1997).

Each structure is given as a SMILES string. In brackets after ≈: the same amount, converted by molar mass. Some results are limits rather than exact numbers.

The first series relates to mAb 6F9. Put plainly: TCPN EIA, reactivity profile with monoclonal antibody. The class given is binding, mouse. Particulars: 10 min. The method, then: (§1) The following immunoassay protocol was followed
(§2) 1. Microplates were prepared by binding screening conjugate Cl-O-AHT to the polystyrene surface.
(§3) 2. An appropriately diluted sample (200 μl) and the anti-TCPN antibody conjugated to horse radish peroxidase (50 μl) were added and incubated for 10 minutes.
(§4) 3. The wells were rinsed, and 200 μl of substrate, tetramethyl benzidine (TMB), was added to the wells.
(§5) 4. The plates were incubated for a further 10 minutes and 50 μl of stop solution (1.5% NaF) was added.
(§6) 5. The color reaction was read by measuring absorbance at 650 nm.
(§7) The cross reactivity of various TCPN derivatives and other benzene ring-based haptens were assessed using the above antibody preparations.
With `Clc1c(Cl)c(Cl)c(Cl)c(Cl)c1Cl` [HCB, hexachlorobenzene], the IC50 was > 10^4 ppb.

As for `CCc1cccc(C)c1N(C(=O)CCl)C(C)COC` (stereo not drawn) [Metolachlor], the IC50 is on record as > 10^4 ppb.

In turn, `N#Cc1c(S)c(Cl)c(Cl)c(C#N)c1Cl` [4-mercaptoTCPN, 4-mercapto-2,5,6-trichloroisophthalonitrile] returned an IC50 of 4.8 ppb.

With `COC(=O)Nc1nc2ccccc2[nH]1` [MBC, carbendazim], the IC50 is recorded as > 10^4 ppb.

On to `N#Cc1c(Cl)c(O)c(Cl)c(C#N)c1Cl` [5-hydroxyTCPN, 5-hydroxy-2,4,6-trichloroisophthalonitrile], for which the IC50 was 7.0 ppb.

Turning to `NC(=O)c1c(Cl)c(Cl)cc(C(=O)O)c1Cl` [acid/amide TCPN, 3-carbamyl-2,4,5-trichlorobenzoic acid], the IC50 is given as > 10^4 ppb.

The compound `N#Cc1c(O)c(Cl)c(Cl)c(C#N)c1Cl` [4-hydroxyTCPN, 4-hydroxy-2,5,6-trichloroisophthalonitrile] showed an IC50 of 8.0 ppb.

In the case of `CCCN(CCC)c1c([N+](=O)[O-])cc(C(F)(F)F)cc1[N+](=O)[O-]` [Trifluralin], the IC50 was > 10^4 ppb.

In the case of `N#Cc1c(Cl)c(Cl)c(Cl)c(Cl)c1Cl` [PCBN, pentachlorobenzonitrile], the IC50 stood at 30 ppb.

`N#Cc1c(Cl)c(Cl)c(Cl)c(C#N)c1Cl` [TCPN, tetrachloroisophthalonitrile] showed an IC50 of 2.2 ppb.

In the case of `CCNc1nc(Cl)nc(NC(C)C)n1` [Atrazine], the IC50 was > 10^4 ppb.

Take `N#Cc1c(N)c(Cl)c(Cl)c(C#N)c1Cl` [4-aminoTCPN, 4-amino-2,5,6-trichloroisophthalonitrile]: the IC50 was found to be 2.4 ppb.

On to `N#Cc1c(Cl)c(Cl)c(Cl)c(C(N)=O)c1Cl` [amide TCPN, 2,4,5,6-tetrachloro-3-cyanobenzamide], for which the IC50 is 800 ppb.

Take `CCCCNC(=O)n1c(NC(=O)OC)nc2ccccc21` [Benomyl]: the IC50 was > 10^4 ppb.

Regarding `N#Cc1c(Cl)c(N)c(Cl)c(C#N)c1Cl` [5-amino-TCPN, 5-amino-2,4,6-trichloroisophthalonitrile], the IC50 is on record as 1.9 ppb.

Turning to `CCc1cccc(CC)c1N(COC)C(=O)CCl` [Alachlor], the IC50 is > 10^4 ppb.

Staying with this series, now noted: relative to TCPN.
As for `Clc1c(Cl)c(Cl)c(Cl)c(Cl)c1Cl` [HCB, hexachlorobenzene], the “% Cross Reactivity” value is less than 0.01%.

Turning to `CCc1cccc(C)c1N(C(=O)CCl)C(C)COC` (stereo not drawn) [Metolachlor], the “% Cross Reactivity” value is on record as less than 0.01%.

Take `N#Cc1c(S)c(Cl)c(Cl)c(C#N)c1Cl` [4-mercaptoTCPN, 4-mercapto-2,5,6-trichloroisophthalonitrile]: the “% Cross Reactivity” value is listed as 46%.

`COC(=O)Nc1nc2ccccc2[nH]1` [MBC, carbendazim]: the “% Cross Reactivity” value is less than 0.01%.

As to `N#Cc1c(Cl)c(O)c(Cl)c(C#N)c1Cl` [5-hydroxyTCPN, 5-hydroxy-2,4,6-trichloroisophthalonitrile], the “% Cross Reactivity” value is on record as 31%.

In the case of `NC(=O)c1c(Cl)c(Cl)cc(C(=O)O)c1Cl` [acid/amide TCPN, 3-carbamyl-2,4,5-trichlorobenzoic acid], the “% Cross Reactivity” value is reported as less than 0.01%.

For `N#Cc1c(O)c(Cl)c(Cl)c(C#N)c1Cl` [4-hydroxyTCPN, 4-hydroxy-2,5,6-trichloroisophthalonitrile], the “% Cross Reactivity” value amounted to 28%.

In the case of `CCCN(CCC)c1c([N+](=O)[O-])cc(C(F)(F)F)cc1[N+](=O)[O-]` [Trifluralin], the “% Cross Reactivity” value is reported as less than 0.01%.

Regarding `N#Cc1c(Cl)c(Cl)c(Cl)c(Cl)c1Cl` [PCBN, pentachlorobenzonitrile], the “% Cross Reactivity” value came to 7.3%.

With `N#Cc1c(Cl)c(Cl)c(Cl)c(C#N)c1Cl` [TCPN, tetrachloroisophthalonitrile], the “% Cross Reactivity” value came to 100%.

Regarding `CCNc1nc(Cl)nc(NC(C)C)n1` [Atrazine], the “% Cross Reactivity” value is on record as less than 0.01%.

On to `N#Cc1c(N)c(Cl)c(Cl)c(C#N)c1Cl` [4-aminoTCPN, 4-amino-2,5,6-trichloroisophthalonitrile], for which the “% Cross Reactivity” value came to 92%.

Turning to `N#Cc1c(Cl)c(Cl)c(Cl)c(C(N)=O)c1Cl` [amide TCPN, 2,4,5,6-tetrachloro-3-cyanobenzamide], the “% Cross Reactivity” value is 2.8%.

For `CCCCNC(=O)n1c(NC(=O)OC)nc2ccccc21` [Benomyl], the “% Cross Reactivity” value is on record as less than 0.01%.

For `N#Cc1c(Cl)c(N)c(Cl)c(C#N)c1Cl` [5-amino-TCPN, 5-amino-2,4,6-trichloroisophthalonitrile], the “% Cross Reactivity” value was found to be 116%.

Consider `CCc1cccc(CC)c1N(COC)C(=O)CCl` [Alachlor], for which the “% Cross Reactivity” value is on record as less than 0.01%.

A further series concerns polyclonal anti-TCPN antibody. Nature of the series: TCPN EIA, reactivity profile with polyclonal antibody. The class given is binding. Particulars: 10 min. The method, then: as §1, §2, §3, §4, §5, §6, §7
For `Clc1c(Cl)c(Cl)c(Cl)c(Cl)c1Cl` [HCB, hexachlorobenzene], the IC50 is given as > 10^4 ppb.

For `CCc1cccc(C)c1N(C(=O)CCl)C(C)COC` (stereo not drawn) [Metolachlor], the IC50 is > 10^4 ppb.

As to `N#Cc1c(S)c(Cl)c(Cl)c(C#N)c1Cl` [4-mercaptoTCPN, 4-mercapto-2,5,6-trichloroisophthalonitrile], the IC50 is reported as 10 ppb.

As for `COC(=O)Nc1nc2ccccc2[nH]1` [MBC, carbendazim], the IC50 is listed as > 10^4 ppb.

The compound `N#Cc1c(Cl)c(O)c(Cl)c(C#N)c1Cl` [5-hydroxyTCPN, 5-hydroxy-2,4,6-trichloroisophthalonitrile] displayed an IC50 of 800 ppb.

As to `NC(=O)c1c(Cl)c(Cl)cc(C(=O)O)c1Cl` [acid/amide TCPN, 3-carbamyl-2,4,5-trichlorobenzoic acid], the IC50 is reported as > 10^4 ppb.

`N#Cc1c(O)c(Cl)c(Cl)c(C#N)c1Cl` [4-hydroxyTCPN, 4-hydroxy-2,5,6-trichloroisophthalonitrile] registered an IC50 of 1010 ppb.

On to `CCCN(CCC)c1c([N+](=O)[O-])cc(C(F)(F)F)cc1[N+](=O)[O-]` [Trifluralin], for which the IC50 is given as > 10^4 ppb.

As for `N#Cc1c(Cl)c(Cl)c(Cl)c(Cl)c1Cl` [PCBN, pentachlorobenzonitrile], the IC50 came to 60 ppb.

In the case of `N#Cc1c(Cl)c(Cl)c(Cl)c(C#N)c1Cl` [TCPN, tetrachloroisophthalonitrile], the IC50 is listed as 5.0 ppb.

Turning to `CCNc1nc(Cl)nc(NC(C)C)n1` [Atrazine], the IC50 was > 10^4 ppb.

In turn, `N#Cc1c(N)c(Cl)c(Cl)c(C#N)c1Cl` [4-aminoTCPN, 4-amino-2,5,6-trichloroisophthalonitrile] came in with an IC50 of 43 ppb.

Consider `N#Cc1c(Cl)c(Cl)c(Cl)c(C(N)=O)c1Cl` [amide TCPN, 2,4,5,6-tetrachloro-3-cyanobenzamide], for which the IC50 was found to be 700 ppb.

Turning to `CCCCNC(=O)n1c(NC(=O)OC)nc2ccccc21` [Benomyl], the IC50 was > 10^4 ppb.

`N#Cc1c(Cl)c(N)c(Cl)c(C#N)c1Cl` [5-amino-TCPN, 5-amino-2,4,6-trichloroisophthalonitrile] had an IC50 of 43 ppb.

Consider `CCc1cccc(CC)c1N(COC)C(=O)CCl` [Alachlor], for which the IC50 is recorded as > 10^4 ppb.

The same series, now with this note: relative to TCPN.
Take `Clc1c(Cl)c(Cl)c(Cl)c(Cl)c1Cl` [HCB, hexachlorobenzene]: the “% Cross Reactivity” value is listed as less than 0.01%.

`CCc1cccc(C)c1N(C(=O)CCl)C(C)COC` (stereo not drawn) [Metolachlor]: the “% Cross Reactivity” value is recorded as less than 0.01%.

On to `N#Cc1c(S)c(Cl)c(Cl)c(C#N)c1Cl` [4-mercaptoTCPN, 4-mercapto-2,5,6-trichloroisophthalonitrile], for which the “% Cross Reactivity” value was determined as 60%.

With `COC(=O)Nc1nc2ccccc2[nH]1` [MBC, carbendazim], the “% Cross Reactivity” value was less than 0.01%.

As for `N#Cc1c(Cl)c(O)c(Cl)c(C#N)c1Cl` [5-hydroxyTCPN, 5-hydroxy-2,4,6-trichloroisophthalonitrile], the “% Cross Reactivity” value is given as 0.6%.

With `NC(=O)c1c(Cl)c(Cl)cc(C(=O)O)c1Cl` [acid/amide TCPN, 3-carbamyl-2,4,5-trichlorobenzoic acid], the “% Cross Reactivity” value was less than 0.01%.

As to `N#Cc1c(O)c(Cl)c(Cl)c(C#N)c1Cl` [4-hydroxyTCPN, 4-hydroxy-2,5,6-trichloroisophthalonitrile], the “% Cross Reactivity” value is given as 0.5%.

For `CCCN(CCC)c1c([N+](=O)[O-])cc(C(F)(F)F)cc1[N+](=O)[O-]` [Trifluralin], the “% Cross Reactivity” value is reported as less than 0.01%.

For `N#Cc1c(Cl)c(Cl)c(Cl)c(Cl)c1Cl` [PCBN, pentachlorobenzonitrile], the “% Cross Reactivity” value was 8.3%.

For the compound `N#Cc1c(Cl)c(Cl)c(Cl)c(C#N)c1Cl` [TCPN, tetrachloroisophthalonitrile], the “% Cross Reactivity” value turned out to be 100%.

On to `CCNc1nc(Cl)nc(NC(C)C)n1` [Atrazine], for which the “% Cross Reactivity” value was less than 0.01%.

In the case of `N#Cc1c(N)c(Cl)c(Cl)c(C#N)c1Cl` [4-aminoTCPN, 4-amino-2,5,6-trichloroisophthalonitrile], the “% Cross Reactivity” value amounted to 12%.

Consider `N#Cc1c(Cl)c(Cl)c(Cl)c(C(N)=O)c1Cl` [amide TCPN, 2,4,5,6-tetrachloro-3-cyanobenzamide], for which the “% Cross Reactivity” value is given as 0.7%.

For `CCCCNC(=O)n1c(NC(=O)OC)nc2ccccc21` [Benomyl], the “% Cross Reactivity” value is recorded as less than 0.01%.

As to `N#Cc1c(Cl)c(N)c(Cl)c(C#N)c1Cl` [5-amino-TCPN, 5-amino-2,4,6-trichloroisophthalonitrile], the “% Cross Reactivity” value was 12%.

`CCc1cccc(CC)c1N(COC)C(=O)CCl` [Alachlor]: the “% Cross Reactivity” value was less than 0.01%.

Tested on in another series: not listed separately
Nature of the series: Solubility. The class given is physicochemical. Conditions: dmf, organic solvent or mixture; read-out: solubility.
For orientation: solubility means the dissolved amount per volume that the medium holds. In the case of `N#Cc1c(Cl)c(C#N)c(Cl)c(OC(=O)CC(=O)O)c1Cl` [BK-489-36], the solubility was found to be 4500 µg/mL (≈ 13.5 mM).

Still in this series, the particulars now being: water or polar organic solvents.
On to `N#Cc1c(Cl)c(C#N)c(Cl)c(OC(=O)NCC(=O)O)c1Cl` [BK-489-35], for which the solubility result is given as “extremely low solubility”.

As for `N#Cc1c(Cl)c(C#N)c(Cl)c(NC(=O)NCC(=O)O)c1Cl` [BK-489-41], the solubility entry was “high solubility”.

Tested on in another series: not given
Assay: not given
Particulars: cited from earlier work.
Turning to `N#Cc1c(Cl)c(Cl)c(Cl)c(C#N)c1Cl` [TCPN, tetrachloroisophthalonitrile], the solubility in water entry was “practically insoluble in water”.

Another series deals with experimental animals.
Assay: not given
Conditions: cited from earlier work.
In the case of `N#Cc1c(Cl)c(Cl)c(Cl)c(C#N)c1Cl` [TCPN, tetrachloroisophthalonitrile], the sensitizing properties result was “sensitizing properties”.

The subject of the next series is human skin.
Assay: not given
Particulars: exposed humans; cited from earlier work.
On to `N#Cc1c(Cl)c(Cl)c(Cl)c(C#N)c1Cl` [TCPN, tetrachloroisophthalonitrile], for which the allergic reaction result is “stimulates an allergic reaction, leading to an IgE antibody response”.

The same series, now with this note: production plant and field; cited from earlier work.
For `N#Cc1c(Cl)c(Cl)c(Cl)c(C#N)c1Cl` [TCPN, tetrachloroisophthalonitrile], the contact dermatitis entry was “associated with contact dermatitis”.

The same series, now with this note: tested directly on human skin; cited from earlier work.
As for `N#Cc1c(Cl)c(Cl)c(Cl)c(C#N)c1Cl` [TCPN, tetrachloroisophthalonitrile], the sensitizing properties entry is “sensitizing properties”.
